# Measurements: patent US20200262787A1, “OPTICAL COMPONENT FORMING COMPOSITION AND CURED PRODUCT THEREOF” (Mitsubishi Gas Chemical Company, Inc., priority 2016, published 2020)
# Assay: Organic solvent solubility test of compound
# Type: physicochemical
# Settings: compound in propylene glycol monomethyl ether acetate, 23° C., ultrasonic waves 30 minutes, visual
# Description: The solubility of the compound in propylene glycol monomethyl ether acetate was measured as the solubility of the compound in an organic solvent.
# A: 5.0% by mass Amount of dissolution
# C: Amount of dissolution <3.0% by mass
row,Structure (SMILES),Solubility in organic solvent
1,CC1(OC(=O)COc2ccc([Te](Cl)(Cl)c3ccc(OCC(=O)OC4(C)C5CC6CC(C5)CC4C6)cc3OCC(=O)OC3(C)C4CC5CC(C4)CC3C5)cc2)C2CC3CC(C2)CC1C3 (centres unmarked) [CCHT-ADBAC],A (5.0% by mass Amount of dissolution)
2,"CC(C)(C)OC(=O)Oc1ccc([Te](Cl)(Cl)c2ccc(OC(=O)OC(C)(C)C)cc2)cc1 [BHPT-BOC, bis(tert-butoxycarboxyphenyl)tellurium dichloride]",A (5.0% by mass Amount of dissolution)
3,"Oc1ccc([Te](Cl)(Cl)c2ccc(O)c(-c3ccccc3)c2)cc1-c1ccccc1 [Ph-BHPT, bis(3-phenyl-4-hydroxyphenyl)tellurium dichloride]",A (5.0% by mass Amount of dissolution)
4,"Oc1ccc([Te]c2ccc(O)cc2)cc1 [TDP, 4,4′-telluriumdiphenol]",A (5.0% by mass Amount of dissolution)
5,"Oc1ccc([Te](Cl)(Cl)c2ccc(O)cc2O)cc1 [CCHT, (2,4-dihydroxyphenyl) (4-hydroxyphenyl)tellurium dichloride]",A (5.0% by mass Amount of dissolution)
6,CCOC(C)Oc1ccc([Te](Cl)(Cl)c2ccc(OC(C)OCC)c(-c3ccccc3)c2)cc1-c1ccccc1 (centres unmarked) [Ph-TDP-EE],A (5.0% by mass Amount of dissolution)
7,CC1(OC(=O)COc2ccc([Te]c3ccc(OCC(=O)OC4(C)C5CC6CC(C5)CC4C6)cc3)cc2)C2CC3CC(C2)CC1C3 (centres unmarked) [TDP-ADBAC],A (5.0% by mass Amount of dissolution)
8,CC1(OC(=O)COc2ccc([Te](Cl)(Cl)c3ccc(OCC(=O)OC4(C)C5CC6CC(C5)CC4C6)c(-c4ccccc4)c3)cc2-c2ccccc2)C2CC3CC(C2)CC1C3 (centres unmarked) [Ph-BHPT-ADBAC],A (5.0% by mass Amount of dissolution)
9,CC1(OC(=O)COc2ccc([Te]c3ccc(OCC(=O)OC4(C)C5CC6CC(C5)CC4C6)c(-c4ccccc4)c3)cc2-c2ccccc2)C2CC3CC(C2)CC1C3 (centres unmarked) [Ph-TDP-ADBAC],A (5.0% by mass Amount of dissolution)
10,"Oc1ccc([Te]c2ccc(O)c(-c3ccccc3)c2)cc1-c1ccccc1 [Ph-TDP, bis(3-phenyl-4-hydroxyphenyl)tellurium]",A (5.0% by mass Amount of dissolution)
11,"CCOC(C)Oc1ccc([Te](Cl)(Cl)c2ccc(OC(C)OCC)cc2)cc1 (centres unmarked) [BHPT-EE, bis(ethoxyethylphenyl)tellurium dichloride]",A (5.0% by mass Amount of dissolution)
12,"Oc1ccc([Te](Cl)(Cl)c2ccc(O)cc2)cc1 [BHPT, bis(4-hydroxyphenyl)tellurium dichloride]",A (5.0% by mass Amount of dissolution)
13,"CC1(OC(=O)COc2ccc([Te](Cl)(Cl)c3ccc(OCC(=O)OC4(C)C5CC6CC(C5)CC4C6)cc3)cc2)C2CC3CC(C2)CC1C3 (centres unmarked) [BHPT-ADBAC, bis(4-(2-methyl-2-adamantyloxycarbonylmethoxy)phenyl)tellurium dichloride]",A (5.0% by mass Amount of dissolution)
14,CC(C)(C)OC(=O)COc1ccc([Te]c2ccc(OCC(=O)OC(C)(C)C)c(-c3ccccc3)c2)cc1-c1ccccc1 [Ph-TDP-BOC],A (5.0% by mass Amount of dissolution)
